In patent publication US11890279B2, “Quinolines that modulate SERCA and their use for treating disease” (Neurodon Corporation, priority 2020, dated 2024):

Legend:
[1] = tested on: APPSWE/PSEN1dE9 double-transgenic mice; assay: Alzheimer's model behavioral test, Morris water maze; type: in vivo, mouse; settings: 10 mg/kg IP daily for 4 weeks; vs vehicle
Description: Briefly, the mice were shown a visible platform that was subsequently removed. The distance that the mice swim searching for the platform was measured, with a shorter distance indicating increased memory. […] Motor coordination, strength, and balance was assessed using the Rotarod test (FIG. 6, B). Mice were first trained until they could remain on a rotarod revolving at 16 rpm for three consecutive 120 sec trials. The next day the mice were placed back on the rotarod for a single trial at 18 rpm (maximum duration 120 sec). The duration a mouse could remain on the rotarod was recorded, and the mouse was then returned to its home cage. The speed of the rotarod was then increased to 21 rpm, and all mice were given another test trial. This process was repeated for rotarod speeds of 24, 27, 30, 33, and 36 rpm. All the speeds were repeated twice for the mice in different groups, interval 30 min every time. The Mean values of two tests were analyzed. The mice maintained longer time on the rotarod with more ability of motor coordination, strength and balance.

liver of ob/ob mice = assay: Liver expression of gluconeogenesis and lipogenesis genes in ob/ob mice; type: in vivo, mouse
Description: The expression of key genes involved in gluconeogenesis and lipogenesis was measured. RNA was isolated from liver samples of the ob/ob mice and mRNA expression of the indicated genes was quantified by Real-time PCR using iTaq Fast SYBR Green Supermix with ROX (Bio-Rad) in a 7500 Real-Time PCR systems (Applied Biosystems) using mouse specific primers. Gene expression is normalized to 18s. RNA was isolated using Trizol (Invitrogen). cDNA was generated using High Capacity cDNA Reverse Transcription kit (Applied Biosystems). Real-time PCR was performed with iTaq Fast SYBR Green Supermix with ROX (Bio-Rad) in 7500 Real-Time PCR systems (Applied Biosystems) using mouse specific primers. Gene expression was normalized to 18s. Isolated liver tissue was homogenized in RIPA buffer containing protease inhibitors and phosphatase inhibitors (Roche). Protein samples were matched for their protein concentrations and 30 micrograms of each sample were applied to SDS-PASE and transferred onto nitrocellulose membrane. Membranes were then incubated with the corresponding phosphor or total primary antibodies specific for the desired proteins followed by incubation with appropriate secondary antibodies conjugated to horseradish peroxidase (Pierce) and signal intensities were visualized by Chemiluminescence (Pierce). Films from at least four independent experiments were scanned and densities of the immunoreactive bands were evaluated using NIH Image software. GAPDH (Santa Cruz Biotechnology) was used as a loading control.

ob/ob mice [2] = assay: Effect on the level of blood glucose in ob/ob mice; type: in vivo, mouse; settings: for blood glucose: 10 or 50 mg/kg i.p. once a day for 5 days, as early as day 2; for glucose level after the last injection: for over a week after the last injection
Description: Fasting glucose was measured at baseline and 10 hours after the administration of the test compound. Glucose levels were measured in blood samples drawn from the tail vein using the OneTouch Ultra 2 Meter (LifeScan, Inc.).

SERCA (SR vesicles) = assay: Activation of SERCA, increase in Vmax; type: biochemical
Description: Test compounds were characterized over a range of concentrations using an NADH-linked, enzyme-coupled ATPase assay. Each well contained 2 mg or 7 mg of SR vesicles (optimized for skeletal or cardiac SR, respectively), 50 mM MOPS (pH 7.0), 100 mM KCl, 5 mM MgCl2, 1 mM EGTA, 0.2 mM NADH, 1 mM phosphoenol pyruvate, 5 IU pyruvate kinase, 5 IU lactate dehydrogenase, and 3.5 mg/mL A23187 (a calcium ionophore), and CaCl2 was added to set free [Ca2+] to the specific values. The assay was started upon addition of ATP at a final concentration of 5 mM, and read in a SpectraMax Plus microplate spectrophotometer and the ATPase activities were fitted using the Hill function.

6-OHDA-lesioned rats = assay: Behavioral tests in the 6-OHDA-lesioned rat model of Parkinson's disease; type: in vivo; settings: 10 mg/kg IP once daily
Excerpt: Behavioral tests in the 6-hydroxydopamine (6-OHDA)-lesioned rat model of Parkinson's disease. Male Wistar rats were trained for both the stepping and initiation time (IT) tests 6 days before treatment with 6-OHDA or NaCl (day −6). 5 days before treatment with 6-OHDA, animals from groups 1 to 3 were given vehicles [NaCl or a mixture of DMSO (10%)/tween 80 (10%)/water (80%)] once daily for 16 days. […] All the treatments were given via the IP route, once daily, Sunday excluded. Surgery was performed on DO under ketamine (50 mg/kg) and xylazine (10 mg/kg). Animals received a unilateral injection of 6-OHDA, 6 μl (sigma Aldrich) in the left substantia nigra pars compacta. During surgery, local analgesia was achieved using subcutaneous injections of lidocaine. At the end of surgery, animals were treated with buprenorphine (0.05 mg/kg, S.C.). […] For the IT test, only one of the two forelimbs was left free to move and the time that is necessary to initiate the movement toward the plane surface was recorded, using 180 sec as break-off point. […] In the stepping test, the rat was held by the experimenter and only one of the two forelimbs was left free to move above a plane surface. The other hand fixed the forelimb not to be monitored with one paw touching the table. The animal was then be moved slowly forward by the experimenter. The number of adjusting steps was counted for the right paw. […] In the cylinder test, animals were placed in a Plexiglas cylinder and, immediately, videotaped for 15 min. During this time, the numbers of contacts made on the cylinder wall with both the ipsilateral, the contralateral, and the two paws simultaneously (double contacts) were recorded and then expressed as a percentage of the total number of contacts.

[3] = tested on: HeLa cells overexpressing BI-1; assay: Effect of a SERCA agonist on [Ca2+]ER (ER cameleon); type: cell-based; settings: 24 hrs treatment, ER cameleon YFP/CFP
Description: To directly measure ER Ca^2+ content, a genetically encoded Ca^2+ indicator, ER cameleon, was used. HeLa cells were transfected with ER-cameleon encoding plasmid for 2 days before analysis. Cells were treated with a test compound for 24 hrs and imaged in Ca^2+-free HBSS upon addition of thapsigargin to deplete ER stores. Emission ratio imaging of the ER cameleon was accomplished using a 430/24 excitation filter, 450-nm dichroic mirror, and two emission filters (475/40 for CFP and 535/25 for YFP). The fluorescence ratio of YFP/CFP is a measure of relative ER Ca^2+ levels.

ob/ob mice [4] = assay: Glucose (GTT) and insulin (ITT) tolerance tests in ob/ob mice; type: in vivo, mouse; settings: vs vehicle
Description: For the GTT, D-glucose dissolved in 0.9% NaCl was delivered intraperitoneally at a dose of 1 g/kg. The blood glucose level was measured 0, 15, 30, 60, 90, and 120 min after glucose administration. For the ITT, insulin was administered intraperitoneally at a dose of 1 IU/kg. The blood glucose level was measured 0, 15, 30, 60, 90, and 120 min after insulin administration. Glucose levels were measured in blood samples drawn from the tail vein using OneTouch Ultra 2 Meter (LifeScan, Inc.).

| Compound | total distance in hidden platform test (Morris water maze) [1] | expression of PPARα and PGC1α (liver of ob/ob mice) | mRNA expression of G6PAse and PEPCK (liver of ob/ob mice) | mRNA expression of lipogenic genes (SCD1, DGAT2, FASn, SREBP1c) (liver of ob/ob mice) | blood glucose (ob/ob mice [2]) | glucose level after the last injection (ob/ob mice [2]) | Increase in Vmax at 10 μM (SERCA (SR vesicles)) | initiation time (IT test) (6-OHDA-lesioned rats) | number of adjusting steps (stepping test) (6-OHDA-lesioned rats) | number of contacts (cylinder test) (6-OHDA-lesioned rats) | [Ca^2+]ER [3] | hyperglycemic response to i.p. glucose challenge (GTT) (ob/ob mice [4]; day 7 post-injection) | insulin-stimulated glucose deposal (ITT) (ob/ob mice [4]; day 10 post-injection) |
| --- | --- | --- | --- | --- | --- | --- | --- | --- | --- | --- | --- | --- | --- |
| Cc1ccc2cccc(NC(=O)c3ccc(OC(C)C)cc3)c2n1 [Compound A12, 4-Isopropoxy-N-(2-methylquinolin-8-yl)benzamide] | a decrease in total distance | increased | significantly reduced | significantly reduced | significantly lowered | identical to lean mice | A′ (A′ represents an increase greater than 50%) | reduced | increased | increased | significantly restored | significantly reduced | strongly enhanced |
| Cc1ccc2cccc(NC(=O)c3ccc(N(C)C)cc3)c2n1 [Compound C18, 4-N,N-Dimethylamino-N-(2-methylquinolin-8-yl)benzamide] | – | – | – | – | significantly lowered | identical to lean mice | – | – | – | – | – | – | – |
